Test results as given in patent US8101180B2, “Anti-IGF-IR and/or anti-insulin/IGF-I hybrid receptors antibodies and uses thereof” (Pierre Fabre Medicament, priority 2002, dated 2012).

Legend:
[1] = test system: IRS-1; assay: Tyrosine phosphorylation of IRS-1 in IGF-I-stimulated MCF7 cells; assay type: cell-based, human; settings: antibodies 10 μg/ml, IGF-I 50 ng/ml
Experimental: MCF7 cells are cultured for 24 hours at 5·10^4 cells/cm^2 (75 cm^2 plates, COSTAR) in 20 ml of RPMI without phenol red, mixed with 5 mM of glutamine, penicillin/streptomycin (respectively 100 U/100 μg/ml) and 10% of fetal calf serum. After three washes in PBS, the cells were incubated for 12 hours in medium (RPMI) without phenol red, devoid of fetal calf serum and mixed with 5 mM of glutamine, penicillin/streptomycin, bovine serum albumin at 0.5 μg/ml (Sigma A-8022) and transferrin at 5 μg/ml (Sigma T8158).
For activation, the cells were first incubated at 37° C. for 2 minutes with blocking antibodies (10 μg/ml) and then IGF-I (Sigma I3769, 50 ng/ml) was added for two additional minutes. The reaction was stopped by aspiration of the incubation medium and the plates were laid on ice. […] The solutions were centrifuged at 12,000 rpm for ten minutes (4° C.) and the protein concentrations of the supernatants were quantified by BCA.
500 μg of proteins of the cell lysate were mixed with the anti-IGF-IR (Santa cruz Ref.: sc-713) for immunoprecipitation and incubated on the shaker at 4° C. for 1.5 hours. […] The supernatants were analyzed by electrophoresis on polyacrylamide SDS gel (8% Novex EC6015). […]

[2] = test system: MCF-7 cells; assay: Apoptosis of MCF-7 cells (Annexin V-FITC/DAPI flow cytometry); assay type: cell-based, human; settings: antibody 10 μg/ml + doxorubicin 2 μg/ml, 24 hours
Experimental: As indicated above, IGF-IR is capable of conferring protection against apoptosis when it is overexpressed on the surface of cells. […] In these experiments, the MCF-7 cells are inoculated at 2·10^4/cm^2 in Petri dishes and cultured for 24 h in RPMI without phenol red supplemented with 10% of fetal calf serum (FCS). The cells are then washed twice with PBS and put back into culture in medium with 0% FCS. They are allowed an adaptation time of 10 minutes at 37° C. before the addition of the antibodies at 10 μg/ml. After an extra 10 minutes at 37° C., recombinant IGF-I (Sigma) is added to the culture medium to a final concentration of 50 ng/ml. The cells are left at 37° C. again for one hour in order to allow the attachment of the antibodies and of the IGF-I. Finally, the doxorubicin (Sigma) is added to the culture medium at 2 μg/ml and the cells are incubated for 24 hours at 37° C.
The experiments have likewise been conducted with navelbine at a concentration of 10 μg/ml.
The analysis of the cell viability is carried out by flow cytometric analysis after labeling with the annexin V-FITC (20 minutes, 4° C.) and DAPI (2 μg/ml). The percentage of dead cells considered is the labeled population Annexin+/DAPI+. The antibody 5C2 is used as a control isotype.

[3] = test system: IR; assay: Immunoprecipitation of IR from R−/IR-A and R−/IR-B cell lysates; assay type: binding
Excerpt: (§1) The used cells for this study are listed thereafter: • R+: R− fibroblasts stably transfected with the IGF-I receptor (IGF-IR) cDNA • R−/IR-A: R− fibroblasts stably transfected with the insulin receptor isoform A (IR-A) cDNA • R−/IR-B:R− fibroblasts stably transfected with the insulin receptor isoform B (IR-B) cDNA • R+/IR-A: R− fibroblasts stably co-transfected with the IGF-I and the insulin receptor isoform A cDNA and, therefore, expressing hybrid receptors A (Hybrid-RsA) • R+/IR-B: R− fibroblasts stably co-transfected with the IGF-I and the insulin receptor isoform B cDNA and, therefore, expressing hybrid receptors B (Hybrid-RsB)
(§2) For the obtention of cellular lysat, cells were solubilized in RIPA buffer and 4 mg protein used for immunoprecipitation.
(§3) Following immunoprecipitation, the pellet was resuspended in 2× sample buffer and subjected to SDS-PAGE (7.5% polyacrylamide).
(§4) Filters were blotted as follows: Filters containing R+ lysates (and therefore only IGF-IR) with an anti-IGF-IR β-subunit (Santa Cruz). Filters containing lysates from all the remaining cells with an antibody anti-IR β-subunit (Santa Cruz).

[4] = test system: Hybrid-R; assay: Immunoprecipitation of Hybrid-R from R+/IR-A and R+/IR-B cell lysates; assay type: binding
Excerpt: as §1, §2, §3, §4

Chain of Hybrid-R (P08069 31-736 limits assumed): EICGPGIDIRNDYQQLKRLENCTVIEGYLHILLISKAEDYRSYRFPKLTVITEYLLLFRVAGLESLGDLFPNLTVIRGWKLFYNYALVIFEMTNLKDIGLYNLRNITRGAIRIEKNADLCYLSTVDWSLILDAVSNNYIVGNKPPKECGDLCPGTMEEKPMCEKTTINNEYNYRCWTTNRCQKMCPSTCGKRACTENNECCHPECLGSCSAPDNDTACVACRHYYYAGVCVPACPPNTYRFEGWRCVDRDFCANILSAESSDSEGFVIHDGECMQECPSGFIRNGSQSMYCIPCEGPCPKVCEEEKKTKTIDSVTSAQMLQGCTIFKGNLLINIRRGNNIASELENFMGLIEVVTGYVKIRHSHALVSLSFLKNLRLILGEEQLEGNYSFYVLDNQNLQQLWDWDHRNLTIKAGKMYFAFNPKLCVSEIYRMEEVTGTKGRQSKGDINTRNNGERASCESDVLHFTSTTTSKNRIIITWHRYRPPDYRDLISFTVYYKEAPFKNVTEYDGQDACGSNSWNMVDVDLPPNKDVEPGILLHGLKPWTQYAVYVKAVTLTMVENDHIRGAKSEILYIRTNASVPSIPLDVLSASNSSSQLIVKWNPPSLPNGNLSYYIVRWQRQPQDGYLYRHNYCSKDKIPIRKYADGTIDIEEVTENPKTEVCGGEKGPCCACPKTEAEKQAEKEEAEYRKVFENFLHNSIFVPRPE
Chain of Hybrid-R (P08069 741-1367 limits assumed): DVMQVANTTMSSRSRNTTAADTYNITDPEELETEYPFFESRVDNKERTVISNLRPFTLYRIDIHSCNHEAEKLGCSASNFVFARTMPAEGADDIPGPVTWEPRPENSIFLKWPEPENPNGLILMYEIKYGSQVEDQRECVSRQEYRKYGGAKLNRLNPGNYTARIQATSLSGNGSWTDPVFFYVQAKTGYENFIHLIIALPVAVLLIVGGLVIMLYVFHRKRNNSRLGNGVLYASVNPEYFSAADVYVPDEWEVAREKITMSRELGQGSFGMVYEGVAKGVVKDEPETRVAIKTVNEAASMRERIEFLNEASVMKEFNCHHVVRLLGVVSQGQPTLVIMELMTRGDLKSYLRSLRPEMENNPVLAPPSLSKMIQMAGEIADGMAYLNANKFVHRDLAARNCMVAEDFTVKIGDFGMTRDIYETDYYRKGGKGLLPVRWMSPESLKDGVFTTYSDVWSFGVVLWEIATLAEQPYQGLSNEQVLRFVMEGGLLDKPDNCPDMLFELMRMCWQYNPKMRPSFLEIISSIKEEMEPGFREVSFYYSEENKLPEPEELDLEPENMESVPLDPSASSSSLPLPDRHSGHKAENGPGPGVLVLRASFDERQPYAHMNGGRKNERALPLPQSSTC

| Substance | inhibition of tyrosine phosphorylation of IRS-1 [1] | potentiation of doxorubicin-induced cell death [2] | immunoprecipitation of IR [3] | recognition of Hybrid-R by immunoprecipitation [4] |
| --- | --- | --- | --- | --- |
| 7C10: murine monoclonal anti-IGF-IR IgG1 secreted by the hybridoma deposited at the CNCM under the number I-2717 | inhibit the phosphorylation | significant increase in cell death | Neither 7C10 nor h7C10 appreciably immunoprecipitate IR | recognizes Hybrid-R |
| h7C10: humanized 7C10 anti-IGF-IR antibody, isotype IgG1 (humanized 1 written 7H2HM) | inhibit the phosphorylation | same effect | Neither 7C10 nor h7C10 appreciably immunoprecipitate IR | recognizes Hybrid-R |
